Results as given in patent US7999137B2, “Pesticide bi-phenyl-amidine derivatives” (Bayer Cropscience AG, priority 2006, dated 2011).

How the values were obtained:
[1] = system: Aedes aegypti larvae; experiment: In vivo protective test on Aedes aegypti (AEDSAE U), larvae mortality; conditions: concentration and time not stated
Procedure: In Vivo Protective Test on Aedes Aegypti (AEDSAE U)
To produce a suitable preparation of the active compound, the active compound is mixed with the stated amount of solvent, and the concentrate is diluted with staining water to the desired concentration.
Aedes aegypti larvae are pipetted with a preparation of active ingredient of the desired concentration.
After the specified period of time, mortality in % is determined. 100% means that all larvae have been killed, a 0% means that none of the larvae have been killed.

[2] = logP by HPLC on reversed-phase column (C 18), EEC Directive 79/831 Annex V.A8; assay type: physicochemical; conditions: 40° C., 0.1% aqueous formic acid and acetonitrile; for log p (HCOOH): HPLC reversed-phase C 18, linear gradient 10% to 90% acetonitrile; for chromatographic logP: reversed-phase HPLC column (C 18), pH 2.3, HPLC, read-out: log P (pH 2.3)
Procedure: Temperature: 40° C.; Mobile phases: 0.1% aqueous formic acid and acetonitrile; linear gradient from 10% acetonitrile to 90% acetonitrile.
Calibration was carried out using unbranched alkan-2-ones (comprising 3 to 16 carbon atoms) with known logP values (determination of the logP values by the retention times using linear interpolation between two successive alkanones).

[3] = system: Heliotis virescens; experiment: Test on Heliotis virescens (HELIVI spray application), egg mortality on soybean leaf sections; assay type: in vivo; conditions: eggs on sprayed soybean leaf sections; concentration and time not stated
Description: Heliotis virescens—Test on Heliotis virescens (HELIVI Spray Application)
To produce a suitable preparation of the active compound, 1 part by weight of active compound is mixed with the stated amount of solvent and emulsifier, and the concentrate is dilutes with emulsifier-containing water to the desired concentration.
Soybean (Glycine max.) leaf sections are sprayed with a preparation of the active ingredient of the desired concentration. Once dry, the leaf sections are infested with eggs of cotton bollworm (Heliotis virescens).
After the specified period of time, mortality in % is determined. 100% means that all eggs have been killed and 0% means that none of the eggs have been killed.

| SMILES | log p (HCOOH) [2] | chromatographic logP [2] | activity (mortality of larvae) [1] | activity (mortality of eggs) [3] |
| --- | --- | --- | --- | --- |
| CCN(C)C=Nc1ccc(-c2ccc(F)c(Cl)c2)cc1F [Compound 9] | 1.78 |  | good activity |  |
| CCN(C)C=Nc1ccc(-c2ccc(Cl)c(C(F)(F)F)c2)cc1Cl [Compound 18] | 2.19 |  | good activity |  |
| CCN(C)C=Nc1ccc(-c2ccc(Cl)c(C(F)(F)F)c2)cc1C(F)(F)F [Compound 19] | 2.90 |  | good activity |  |
| CCN(C)C=Nc1ccc(-c2ccc(C(F)(F)F)cc2)cc1F [Compound 26] | 1.87 |  | good activity | good activity |
| CCN(C)C=Nc1cc(C)c(-c2ccc(Oc3ccccc3)cc2)cc1C [Compound 47] | 2.56 |  | good activity |  |
| CCc1cc(-c2ccc(Cl)c(Cl)c2)ccc1N=CN(C)CC [Compound 54] | 2.37 |  | good activity |  |
| CCN(C)C=Nc1ccc(-c2ccc(C=NOC)cc2)cc1F [Compound 77] | 1.73 |  | good activity |  |
| CCN(C)C=Nc1cc(F)c(-c2ccc(Cl)cc2)cc1C [Compound 99] | 2.23 |  | good activity |  |
| CCN(C)C=Nc1ccc(-c2ccc(OC(F)(F)F)cc2)c(Cl)c1 [Compound 100] | 2.15 |  | good activity |  |
| Cc1cc(-c2ccc(Cl)cc2)c(F)cc1N=CN(C)C(C)C [Compound 104] | 2.22 |  | good activity |  |
| CC(C)N(C)C=Nc1ccc(-c2ccc(OC(F)(F)F)cc2)c(Cl)c1 [Compound 105] | 2.42 |  | good activity |  |
| CCN(C)C=Nc1ccc(-c2ccc(C(F)(F)F)cc2)cc1C [Compound 127] | 2.17 |  | good activity |  |
| CCN(C)C=Nc1ccc(-c2cccc(Cl)c2)cc1C [Compound 128] | 2.01 |  | good activity |  |
| CCN(C)C=Nc1ccc(-c2ccc(C(C)(C)C)cc2)cc1C [Compound 129] | 2.67 |  | good activity |  |

Now from value to compound, other results behind:

| log p (HCOOH) [2] | chromatographic logP [2] | SMILES | activity (mortality of larvae) [1] | activity (mortality of eggs) [3] |
| --- | --- | --- | --- | --- |
| 3.13 |  | CCN(C)C=Nc1cc(C)c(-c2ccc(C(C)(C)C)c(Br)c2)cc1C [Compound 164] |  |  |
| 3.18 |  | CCN(C)C=Nc1cc(C)c(-c2ccc(C3CCCCC3)cc2)cc1C [Compound 165] |  |  |
| 3.18 |  | CCN(C)C=Nc1cc(C)c(-c2ccc(C[Si](C)(C)C)cc2)cc1C [Compound 166] |  |  |
| 2.94 |  | CCN(C)C=Nc1cc(C)c(-c2ccc(C3CCCC3)cc2)cc1C [Compound 167] |  |  |
| 2.85 |  | CCN(C)C=Nc1cc(C)c(-c2ccc(C(C)(C)C)c(Cl)c2)cc1C [Compound 168] |  |  |
| 2.74 |  | Cc1cc(-c2ccc(C(C)(C)C)c(F)c2)c(C)cc1N=CN(C)C(C)C [Compound 169] |  |  |
| 2.18 |  | CCN(C)C=Nc1cc(C)c(-c2ccc(OC(C)C)cc2)cc1C [Compound 170] |  |  |
| 2.62 |  | CCN(C)C=Nc1cc(C)c(-c2ccc(OC(C)C)c(Cl)c2)cc1C [Compound 171] |  |  |
| 2.37 |  | CCN(C)C=Nc1cc(C)c(-c2ccc(OC(C)C)c(F)c2)cc1C [Compound 172] |  |  |
| 1.76 |  | CCN(C)C=Nc1cc(C)c(-c2ccc(S(=O)(=O)N(C)C)cc2)cc1C [Compound 173] |  |  |
| 2.21 |  | CCN(C)C=Nc1cc(C)c(-c2ccc(S(=O)(=O)C(F)(F)F)cc2)cc1C [Compound 174] |  |  |
| 2.20 |  | CCN(C)C=Nc1cc(C)c(-c2ccc(Br)cc2)cc1C [Compound 175] |  |  |
| 2.77 |  | CCN(C)C(C)=Nc1cc(C)c(-c2ccc(C(C)(C)C)cc2)cc1C [Compound 176] |  |  |
| 2.21 |  | CCN(C)C=Nc1cc(C#N)c(-c2ccc(C(C)(C)C)cc2)cc1C [Compound 177] |  |  |
| 2.42 |  | CCN(C)C=Nc1cc(C)c(-c2cccc(C(C)C)c2)cc1C [Compound 178] |  |  |
| 3.00 |  | CCN(C)C=Nc1cc(C)c(-c2cccc([Si](C)(C)C)c2)cc1C [Compound 179] |  |  |
|  | 3.65 | Cc1cc(-c2ccc(C(C)(C)C)cc2)c(C)cc1N [Intermediate (VII-1), 4′-tert-butyl-2,5-dimethylbiphenyl-4-amine] |  |  |
|  | 1.36 | CCN(C)/C=N/c1cc(C)c(Br)cc1C [Intermediate (Va-1), N′-(4-bromo-2,5-dimethylphenyl)-N-ethyl-N-methylimidoformamide] |  |  |
